Consider six compounds from patent publication US12723063B2, “GIPR-agonist compounds” (Eli Lilly and Company, priority 2019, dated 2026).

*1 amine or outer side, *2 acyl side, *3 side chain or, on linkers, in order; H or OH if unused. Where a SMILES comes first, the peptide text is derived from it. Side-chain parts run from the residue outwards. [ ]: non-standard residue; d: D form. The star is where a group is joined. C20 diacid = O=C(O)CCCCCCCCCCCCCCCCCCC(=O)*; αMePhe(2-F) = C[C@](N)(Cc1ccccc1F)C(=O)O; γGlu = O=C(O)[C@H](CCC(=O)[*:2])N[*:1]; αMeF = C[C@](N)(Cc1ccccc1)C(=O)O; 4Pal = N[C@@H](Cc1ccncc1)C(=O)O; AEEA = NCCOCCOCC(=O)O; Aib = CC(C)(N)C(=O)O

Test [1] deals with T1, human glucose-dependent insulinotropic peptide receptor (GIPR) (Homo sapiens, UniProt P48546).
T1 construct: expressed in transfected cells; host or cells: HEK293
T1 sequence (P48546 22-466): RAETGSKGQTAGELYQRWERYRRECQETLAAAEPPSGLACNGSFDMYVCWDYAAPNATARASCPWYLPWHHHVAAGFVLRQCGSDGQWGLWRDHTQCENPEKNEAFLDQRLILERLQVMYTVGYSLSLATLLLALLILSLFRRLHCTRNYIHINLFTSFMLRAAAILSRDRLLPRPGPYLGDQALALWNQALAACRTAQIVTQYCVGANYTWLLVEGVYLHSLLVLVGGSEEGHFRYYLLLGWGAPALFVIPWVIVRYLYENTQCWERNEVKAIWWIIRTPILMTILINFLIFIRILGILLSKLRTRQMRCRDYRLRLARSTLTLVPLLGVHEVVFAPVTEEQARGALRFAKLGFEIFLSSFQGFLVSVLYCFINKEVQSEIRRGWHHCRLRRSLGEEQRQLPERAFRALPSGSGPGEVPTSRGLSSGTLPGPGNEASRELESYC
Briefly: cAMP functional assay (HTRF) in HEK293 cells in presence of 0.1% casein. It counts as cell-based. To be noted: HEK293 cells expressing human GIPR, geometric mean, read-out: hGIPR cAMP Rel EC50 nM (SEM, n). A general note: Time-resolved FRET reads energy transfer from a long-lived donor to a nearby acceptor.

Test [2] has as its target T2, human GLP-1 receptor (GLP-1R) (Homo sapiens, UniProt P43220).
T2 construct: expressed in transfected cells; host or cells: HEK293
Described as above. To be noted: HEK293 cells expressing human GLP-1R, geometric mean, read-out: hGLP1R cAMP Rel EC50 nM (SEM, n). It counts as cell-based.

T2 sequence (P43220 24-463): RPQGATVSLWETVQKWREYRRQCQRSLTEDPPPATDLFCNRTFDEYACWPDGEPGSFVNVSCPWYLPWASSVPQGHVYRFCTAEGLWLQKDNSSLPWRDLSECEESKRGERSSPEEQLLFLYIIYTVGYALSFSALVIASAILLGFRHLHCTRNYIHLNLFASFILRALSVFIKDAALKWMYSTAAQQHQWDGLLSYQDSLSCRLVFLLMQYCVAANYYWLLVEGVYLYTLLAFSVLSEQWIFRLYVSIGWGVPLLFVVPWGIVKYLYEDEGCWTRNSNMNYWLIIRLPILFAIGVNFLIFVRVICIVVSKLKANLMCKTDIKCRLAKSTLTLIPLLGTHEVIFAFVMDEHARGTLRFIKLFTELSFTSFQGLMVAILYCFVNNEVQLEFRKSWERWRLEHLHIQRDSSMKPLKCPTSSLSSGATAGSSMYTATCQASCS

By EC50 is commonly meant the concentration at which the effect is half-maximal. Consider `CC[C@H](C)[C@H](NC(=O)[C@H](CO)NC(=O)[C@H](Cc1ccc(O)cc1)NC(=O)[C@H](CC(=O)O)NC(=O)[C@H](CO)NC(=O)[C@@H](NC(=O)[C@](C)(Cc1ccccc1F)NC(=O)[C@@H](NC(=O)CNC(=O)[C@H](CCC(=O)O)NC(=O)C(C)(C)NC(=O)[C@@H](N)Cc1ccc(O)cc1)[C@@H](C)O)[C@@H](C)CC)C(=O)N[C@@H](C)C(=O)N[C@@H](CC(C)C)C(=O)N[C@@H](CC(=O)O)C(=O)N[C@@H](CCCCN)C(=O)N[C@@H](CCCCNC(=O)COCCOCCNC(=O)COCCOCCNC(=O)CC[C@H](NC(=O)CCCCCCCCCCCCCCCCCCC(=O)O)C(=O)O)C(=O)N[C@@H](Cc1c[nH]cn1)C(=O)N[C@@H](CCC(N)=O)C(=O)NC(C)(C)C(=O)N[C@@H](CC(=O)O)C(=O)N[C@@H](Cc1ccccc1)C(=O)N[C@H](C(=O)N[C@@H](CCC(=O)O)C(=O)N[C@@H](Cc1ccncc1)C(=O)N[C@@H](CC(C)C)C(=O)N[C@@H](CC(C)C)C(=O)N[C@@H](CCC(=O)O)C(=O)N[C@H](C(=O)NCC(=O)N1CCC[C@H]1C(=O)N[C@@H](CO)C(=O)N[C@@H](CO)C(=O)NCC(=O)N[C@@H](C)C(=O)N1CCC[C@H]1C(=O)N1CCC[C@H]1C(=O)N1CCC[C@H]1C(=O)N[C@@H](CO)C(N)=O)[C@@H](C)O)C(C)C` [Example 38] (H-Y[Aib]EGT[αMePhe(2-F)]ISDYSIALDKK([AEEA-AEEA-γGlu-C20 diacid])HQ[Aib]DFVE[4Pal]LLETGPSSGAPPPS-NH2), for which the EC50 in test [1] was found to be 0.0368 nM; in test [2], 1390 nM.

Turning to `CC[C@H](C)[C@H](NC(=O)[C@H](CO)NC(=O)[C@H](Cc1ccc(O)cc1)NC(=O)[C@H](CC(=O)O)NC(=O)[C@H](CO)NC(=O)[C@@H](NC(=O)[C@](C)(Cc1ccccc1F)NC(=O)[C@@H](NC(=O)CNC(=O)[C@H](CCC(=O)O)NC(=O)C(C)(C)NC(=O)[C@@H](N)Cc1ccc(O)cc1)[C@@H](C)O)[C@@H](C)CC)C(=O)N[C@@H](C)C(=O)N[C@@H](CC(C)C)C(=O)N[C@@H](CC(=O)O)C(=O)N[C@@H](CCCCN)C(=O)N[C@@H](CCCCNC(=O)COCCOCCNC(=O)COCCOCCNC(=O)CC[C@H](NC(=O)CCCCCCCCCCCCCCCCCCC(=O)O)C(=O)O)C(=O)N[C@@H](Cc1c[nH]cn1)C(=O)N[C@@H](CCC(N)=O)C(=O)NC(C)(C)C(=O)N[C@@H](CC(=O)O)C(=O)N[C@@H](Cc1ccccc1)C(=O)N[C@H](C(=O)N[C@@H](CCC(=O)O)C(=O)N[C@@H](Cc1ccncc1)C(=O)N[C@@H](CC(C)C)C(=O)N[C@@H](CC(C)C)C(=O)N[C@@H](CCC(=O)O)C(=O)NCC(=O)NCC(=O)N1CCC[C@H]1C(=O)N[C@@H](CO)C(=O)N[C@@H](CO)C(=O)NCC(=O)N[C@@H](C)C(=O)N1CCC[C@H]1C(=O)N1CCC[C@H]1C(=O)N1CCC[C@H]1C(=O)N[C@@H](CO)C(N)=O)C(C)C` [Example 39] (H-Y[Aib]EGT[αMePhe(2-F)]ISDYSIALDKK([AEEA-AEEA-γGlu-C20 diacid])HQ[Aib]DFVE[4Pal]LLEGGPSSGAPPPS-NH2), the 50% effective concentration (EC50) in test [1] turned out to be 0.0112 nM; in test [2] it was 3330 nM.

On to `CC[C@H](C)[C@H](NC(=O)[C@H](CO)NC(=O)[C@H](Cc1ccc(O)cc1)NC(=O)[C@H](CC(=O)O)NC(=O)[C@H](CO)NC(=O)[C@@H](NC(=O)[C@](C)(Cc1ccccc1F)NC(=O)[C@@H](NC(=O)CNC(=O)[C@H](CCC(=O)O)NC(=O)C(C)(C)NC(=O)[C@@H](N)Cc1ccc(O)cc1)[C@@H](C)O)[C@@H](C)CC)C(=O)N[C@@H](C)C(=O)N[C@@H](CC(C)C)C(=O)N[C@@H](CC(=O)O)C(=O)N[C@@H](CCCCN)C(=O)N[C@@H](CCCCNC(=O)COCCOCCNC(=O)COCCOCCNC(=O)CC[C@H](NC(=O)CCCCCCCCCCCCCCCCCCC(=O)O)C(=O)O)C(=O)N[C@@H](Cc1c[nH]cn1)C(=O)N[C@@H](CCC(N)=O)C(=O)NC(C)(C)C(=O)N[C@@H](CC(=O)O)C(=O)N[C@@H](Cc1ccccc1)C(=O)N[C@H](C(=O)N[C@@H](CCC(=O)O)C(=O)N[C@@H](Cc1c[nH]c2ccccc12)C(=O)N[C@@H](CC(C)C)C(=O)N[C@@H](CC(C)C)C(=O)N[C@@H](CCC(=O)O)C(=O)N[C@H](C(=O)NCC(=O)N1CCC[C@H]1C(=O)N[C@@H](CO)C(=O)N[C@@H](CO)C(=O)NCC(=O)N[C@@H](C)C(=O)N1CCC[C@H]1C(=O)N1CCC[C@H]1C(=O)N1CCC[C@H]1C(=O)N[C@@H](CO)C(N)=O)[C@@H](C)O)C(C)C` [Example 40] (H-Y[Aib]EGT[αMePhe(2-F)]ISDYSIALDKK([AEEA-AEEA-γGlu-C20 diacid])HQ[Aib]DFVEWLLETGPSSGAPPPS-NH2), for which the EC50 in test [1] was 0.033 nM; in test [2], 2330 nM.

In the case of `CC[C@H](C)[C@H](NC(=O)[C@H](CO)NC(=O)[C@H](Cc1ccc(O)cc1)NC(=O)[C@H](CC(=O)O)NC(=O)[C@H](CO)NC(=O)[C@@H](NC(=O)[C@](C)(Cc1ccccc1)NC(=O)[C@@H](NC(=O)CNC(=O)[C@H](CCC(=O)O)NC(=O)C(C)(C)NC(=O)[C@@H](N)Cc1ccc(O)cc1)[C@@H](C)O)[C@@H](C)CC)C(=O)N[C@@H](C)C(=O)N[C@@H](CC(C)C)C(=O)N[C@@H](CC(=O)O)C(=O)N[C@@H](CCCCN)C(=O)N[C@@H](CCCCNC(=O)COCCOCCNC(=O)COCCOCCNC(=O)CC[C@H](NC(=O)CCCCCCCCCCCCCCCCCCC(=O)O)C(=O)O)C(=O)N[C@@H](Cc1c[nH]cn1)C(=O)N[C@@H](CCC(N)=O)C(=O)NC(C)(C)C(=O)N[C@@H](CC(=O)O)C(=O)N[C@@H](Cc1ccccc1)C(=O)N[C@H](C(=O)N[C@@H](CCC(=O)O)C(=O)N[C@@H](Cc1ccncc1)C(=O)N[C@@H](CC(C)C)C(=O)N[C@@H](CC(C)C)C(=O)N[C@@H](CCC(=O)O)C(=O)N[C@H](C(=O)NCC(=O)N1CCC[C@H]1C(=O)N[C@@H](CO)C(=O)N[C@@H](CO)C(=O)NCC(=O)N[C@@H](C)C(=O)N1CCC[C@H]1C(=O)N1CCC[C@H]1C(=O)N1CCC[C@H]1C(=O)N[C@@H](CO)C(N)=O)[C@@H](C)O)C(C)C` [Example 41] (H-Y[Aib]EGT[αMeF]ISDYSIALDKK([AEEA-AEEA-γGlu-C20 diacid])HQ[Aib]DFVE[4Pal]LLETGPSSGAPPPS-NH2), the EC50 came out at 0.0281 nM in test [1] and 1800 nM in test [2].

Take `CC[C@H](C)[C@H](NC(=O)[C@H](CO)NC(=O)[C@H](Cc1ccc(O)cc1)NC(=O)[C@H](CC(=O)O)NC(=O)[C@H](CO)NC(=O)[C@@H](NC(=O)[C@](C)(Cc1ccccc1)NC(=O)[C@@H](NC(=O)CNC(=O)[C@H](CCC(=O)O)NC(=O)C(C)(C)NC(=O)[C@@H](N)Cc1ccc(O)cc1)[C@@H](C)O)[C@@H](C)CC)C(=O)N[C@@H](C)C(=O)N[C@@H](CC(C)C)C(=O)N[C@@H](CC(=O)O)C(=O)N[C@@H](CCCCN)C(=O)N[C@@H](CCCCNC(=O)COCCOCCNC(=O)COCCOCCNC(=O)CC[C@H](NC(=O)CCCCCCCCCCCCCCCCCCC(=O)O)C(=O)O)C(=O)N[C@@H](Cc1c[nH]cn1)C(=O)N[C@@H](CCC(N)=O)C(=O)NC(C)(C)C(=O)N[C@@H](CC(=O)O)C(=O)N[C@@H](Cc1ccccc1)C(=O)N[C@H](C(=O)N[C@@H](CCC(=O)O)C(=O)N[C@@H](Cc1ccncc1)C(=O)N[C@@H](CC(C)C)C(=O)N[C@@H](CC(C)C)C(=O)N[C@@H](CCC(=O)O)C(=O)N[C@@H](CCC(N)=O)C(=O)NCC(=O)N1CCC[C@H]1C(=O)N[C@@H](CO)C(=O)N[C@@H](CO)C(=O)NCC(=O)N[C@@H](C)C(=O)N1CCC[C@H]1C(=O)N1CCC[C@H]1C(=O)N1CCC[C@H]1C(=O)N[C@@H](CO)C(N)=O)C(C)C` [Example 42] (H-Y[Aib]EGT[αMeF]ISDYSIALDKK([AEEA-AEEA-γGlu-C20 diacid])HQ[Aib]DFVE[4Pal]LLEQGPSSGAPPPS-NH2): the results for the 50% effective concentration (EC50) in test [1] and in test [2] were 0.0091 nM and 815 nM, respectively.

As to `CC[C@H](C)[C@H](NC(=O)[C@H](CO)NC(=O)[C@H](Cc1ccc(O)cc1)NC(=O)[C@H](CC(=O)O)NC(=O)[C@H](CO)NC(=O)[C@@H](NC(=O)[C@](C)(Cc1ccccc1)NC(=O)[C@@H](NC(=O)CNC(=O)[C@H](CCC(=O)O)NC(=O)C(C)(C)NC(=O)[C@@H](N)Cc1ccc(O)cc1)[C@@H](C)O)[C@@H](C)CC)C(=O)N[C@@H](C)C(=O)N[C@@H](CC(C)C)C(=O)N[C@@H](CC(=O)O)C(=O)N[C@@H](CCCCN)C(=O)N[C@@H](CCCCNC(=O)COCCOCCNC(=O)COCCOCCNC(=O)CC[C@H](NC(=O)CCCCCCCCCCCCCCCCCCC(=O)O)C(=O)O)C(=O)N[C@@H](Cc1c[nH]cn1)C(=O)N[C@@H](CCC(N)=O)C(=O)NC(C)(C)C(=O)N[C@@H](CC(=O)O)C(=O)N[C@@H](Cc1ccccc1)C(=O)N[C@H](C(=O)N[C@@H](CCC(=O)O)C(=O)N[C@@H](Cc1ccncc1)C(=O)N[C@@H](CC(C)C)C(=O)N[C@@H](CC(C)C)C(=O)N[C@@H](CCC(=O)O)C(=O)N[C@@H](C)C(=O)NCC(=O)N1CCC[C@H]1C(=O)N[C@@H](CO)C(=O)N[C@@H](CO)C(=O)NCC(=O)N[C@@H](C)C(=O)N1CCC[C@H]1C(=O)N1CCC[C@H]1C(=O)N1CCC[C@H]1C(=O)N[C@@H](CO)C(N)=O)C(C)C` [Example 43] (H-Y[Aib]EGT[αMeF]ISDYSIALDKK([AEEA-AEEA-γGlu-C20 diacid])HQ[Aib]DFVE[4Pal]LLEAGPSSGAPPPS-NH2), the values for the half-maximal effective concentration (EC50) in test [1] and in test [2] were 0.0154 nM and 1020 nM, respectively.
